Test results: PubChem BioAssay AID248 (DTP/NCI, 2004)
Where “and” joins values, the source holds several entries; their conditions need not be identical. Equal values may be shown once. Inconclusive results and toxic doses are left out. Cut-off read from the data, not from the text of the source: active = T/C of 150% or more; inactive = T/C below 125%.

System: L1210 leukemia ip in BDF1 mice, survival T/C
Experiment: NCI In Vivo Anticancer Drug Screen. Data for tumor model L1210 Leukemia (intraperitoneal) in B6D2F1 (BDF1) mice
Details: endpoint: mean survival time, higher = longer survival
In short: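 In this screen, tumor-bearing mice given compound are compared to those given vehicle, and their survival values are reported as a treated-to-control quotient.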

[1] = dose: 100.0 mg/kg/injection, schedule: Q04DX003 (ip), vehicle: saline with Tween-80
[2] = dose: 200.0 mg/kg/injection, schedule: Q04DX003 (ip), vehicle: saline with Tween-80
[3] = dose: 400.0 mg/kg/injection, schedule: Q04DX003 (ip), vehicle: saline with Tween-80
[4] = dose: 200.0 mg/kg/injection, schedule: Q04DX002 (ip), vehicle: Klucel (hydroxypropylcellulose) (HPC)
[5] = dose: 400.0 mg/kg/injection, schedule: Q04DX002 (ip), vehicle: Klucel (hydroxypropylcellulose) (HPC)
[6] = dose: 100.0 mg/kg/injection, schedule: Q01DX001 (ip), vehicle: saline
[7] = dose: 200.0 mg/kg/injection, schedule: Q01DX001 (ip), vehicle: saline
[8] = dose: 100.0 mg/kg/injection, schedule: Q01DX001 (ip), vehicle: carboxymethylcellulose (CMC)
[9] = dose: 200.0 mg/kg/injection, schedule: Q01DX001 (ip), vehicle: carboxymethylcellulose (CMC)
[10] = dose: 400.0 mg/kg/injection, schedule: Q01DX001 (ip), vehicle: carboxymethylcellulose (CMC)

Measured: T/C

CCc1ccccc1NC(=O)c1ccccc1Cl
inactive: dose: 100.0 mg/kg/injection, schedule: Q01DX009 (ip), vehicle: other 97 % of control | [1] 102 % of control | dose: 200.0 mg/kg/injection, schedule: Q01DX009 (ip), vehicle: other 95 % of control | [2] 101 % of control | dose: 400.0 mg/kg/injection, schedule: Q01DX009 (ip), vehicle: other 89 % of control | [3] 93 % of control

N#CCCCCSC12CC3CC(CC(C3)C1)C2
inactive: dose: 100.0 mg/kg/injection, schedule: Q04DX002 (ip), vehicle: Klucel (hydroxypropylcellulose) (HPC) 115 % of control | [4] 108 % of control | [5] 89 % of control

CC(Cc1ccccc1)N1C(=O)C=CC1=O (configuration not stated)
inactive: dose: 3.12 mg/kg/injection, schedule: Q01DX009 (ip), vehicle: Klucel (hydroxypropylcellulose) (HPC) 92 % of control | dose: 6.25 mg/kg/injection, schedule: Q01DX009 (ip), vehicle: Klucel (hydroxypropylcellulose) (HPC) 101 % of control | dose: 12.5 mg/kg/injection, schedule: Q01DX009 (ip), vehicle: Klucel (hydroxypropylcellulose) (HPC) 93 % of control and 90 % of control

Oc1ccc(Cl)cc1C=Nc1ccc2c(c1)OCO2
inactive: dose: 100.0 mg/kg/injection, schedule: Q04DX002 (ip), vehicle: saline with Tween-80 91 % of control | dose: 200.0 mg/kg/injection, schedule: Q04DX002 (ip), vehicle: saline with Tween-80 88 % of control | dose: 400.0 mg/kg/injection, schedule: Q04DX002 (ip), vehicle: saline with Tween-80 91 % of control

CCCC(=O)Oc1ccc(C(C)(C)CC(C)(C)C)cc1
inactive: [6] 94 % of control | [7] 98 % of control | dose: 400.0 mg/kg/injection, schedule: Q01DX001 (ip), vehicle: saline 100 % of control

CC(C)(C)C(C)(C)O
inactive: dose: 75.0 mg/kg/injection, schedule: Q01DX001 (ip), vehicle: saline with Tween-80 100 % of control | dose: 150.0 mg/kg/injection, schedule: Q01DX001 (ip), vehicle: saline with Tween-80 97 % of control | dose: 300.0 mg/kg/injection, schedule: Q01DX001 (ip), vehicle: saline with Tween-80 92 % of control

CCCCCCCCCCCCC/C=C\C(=O)N(CCCCN(C)C)CCCCN(C)C
inactive: dose: 2.0 mg/kg/injection, schedule: Q01DX009 (ip), vehicle: carboxymethylcellulose (CMC) 107 % of control | dose: 4.0 mg/kg/injection, schedule: Q01DX009 (ip), vehicle: carboxymethylcellulose (CMC) 104 % of control | dose: 6.0 mg/kg/injection, schedule: Q01DX009 (ip), vehicle: carboxymethylcellulose (CMC) 101 % of control | dose: 8.0 mg/kg/injection, schedule: Q01DX009 (ip), vehicle: carboxymethylcellulose (CMC) 103 % of control | dose: 10.0 mg/kg/injection, schedule: Q01DX009 (ip), vehicle: carboxymethylcellulose (CMC) 90 % of control

CCOC(=O)c1ccc(OC(=O)Nc2ccccc2)cc1
inactive: dose: 100.0 mg/kg/injection, schedule: Q01DX009 (ip), vehicle: saline with Tween-80 98 % of control | [1] 98 % of control | dose: 200.0 mg/kg/injection, schedule: Q01DX009 (ip), vehicle: saline with Tween-80 96 % of control | [2] 95 % of control | dose: 400.0 mg/kg/injection, schedule: Q01DX009 (ip), vehicle: saline with Tween-80 90 % of control | [3] 91 % of control

COc1ccc(Oc2ccc(-c3ccccc3)cc2)cc1
inactive: [8] 98 % of control | [9] 102 % of control | [10] 96 % of control

ClCC1=Nc2c(Cl)ncnc2NN1
inactive: dose: 6.25 mg/kg/injection, schedule: Q04DX003 (ip), vehicle: saline with Tween-80 94 % of control | dose: 12.5 mg/kg/injection, schedule: Q04DX003 (ip), vehicle: saline with Tween-80 96 % of control | dose: 25.0 mg/kg/injection, schedule: Q01DX001 (ip), vehicle: saline with Tween-80 95 % of control | dose: 25.0 mg/kg/injection, schedule: Q04DX003 (ip), vehicle: saline with Tween-80 91 % of control

O=C(OCC(O)C(O)C(O)C(O)COC(=O)c1ccccc1)c1ccccc1 (configuration not stated) (tested in a mixture with another compound)
inactive: dose: 100.0 mg/kg/injection, schedule: Q01DX001 (ip), vehicle: saline with Tween-80 103 % of control | dose: 200.0 mg/kg/injection, schedule: Q01DX001 (ip), vehicle: saline with Tween-80 100 % of control | dose: 400.0 mg/kg/injection, schedule: Q01DX001 (ip), vehicle: saline with Tween-80 90 % of control

CC1(O)C=CCC1 (configuration not stated)
inactive: dose: 75.0 mg/kg/injection, schedule: Q01DX001 (ip), vehicle: carboxymethylcellulose (CMC) 104 % of control | dose: 150.0 mg/kg/injection, schedule: Q01DX001 (ip), vehicle: carboxymethylcellulose (CMC) 102 % of control

CN(C)c1nc(N)c(C#N)c(C#N)c1C#N
inactive: dose: 50.0 mg/kg/injection, schedule: Q01DX001 (ip), vehicle: saline 96 % of control | [6] 96 % of control | [7] 100 % of control

CC(=O)NCC(=O)c1ccc(S(=O)(=O)c2ccccc2)cc1
inactive: dose: 50.0 mg/kg/injection, schedule: Q01DX001 (ip), vehicle: carboxymethylcellulose (CMC) 104 % of control | [8] 98 % of control | [9] 96 % of control | [10] 98 % of control

COC12C(COC(=O)NCCO)C3=C(C(=O)C(C)=C(N)C3=O)N1CC1NC12 (configuration not stated)
inactive: dose: 5.0 mg/kg/injection, schedule: Q01DX009 (ip), vehicle: saline 121 % of control | dose: 10.0 mg/kg/injection, schedule: Q01DX009 (ip), vehicle: saline 122 % of control | dose: 12.0 mg/kg/injection, schedule: Q04DX003 (ip), vehicle: Klucel (hydroxypropylcellulose) (HPC) 94 % of control | dose: 19.0 mg/kg/injection, schedule: Q04DX003 (ip), vehicle: Klucel (hydroxypropylcellulose) (HPC) 111 % of control | dose: 28.0 mg/kg/injection, schedule: Q04DX003 (ip), vehicle: Klucel (hydroxypropylcellulose) (HPC) 111 % of control | dose: 40.0 mg/kg/injection, schedule: Q01DX009 (ip), vehicle: saline 102 % of control | dose: 43.0 mg/kg/injection, schedule: Q01DX001 (ip), vehicle: Klucel (hydroxypropylcellulose) (HPC) 121 % of control | dose: 43.0 mg/kg/injection, schedule: Q01DX009 (ip), vehicle: Klucel (hydroxypropylcellulose) (HPC) 109 % of control | dose: 43.0 mg/kg/injection, schedule: Q04DX003 (ip), vehicle: Klucel (hydroxypropylcellulose) (HPC) 115 % of control | dose: 100.0 mg/kg/injection, schedule: Q01DX003 (ip), vehicle: Klucel (hydroxypropylcellulose) (HPC) 103 % of control | dose: 150.0 mg/kg/injection, schedule: Q01DX001 (ip), vehicle: Klucel (hydroxypropylcellulose) (HPC) 102 % of control | dose: 150.0 mg/kg/injection, schedule: Q01DX003 (ip), vehicle: Klucel (hydroxypropylcellulose) (HPC) 94 % of control | [4] 91 % of control | dose: 225.0 mg/kg/injection, schedule: Q01DX001 (ip), vehicle: Klucel (hydroxypropylcellulose) (HPC) 91 % of control | dose: 225.0 mg/kg/injection, schedule: Q01DX003 (ip), vehicle: Klucel (hydroxypropylcellulose) (HPC) 95 % of control | [5] 91 % of control

CC1=C(/C=C/C(C)=C/C=C/C(C)=C/CO)C(C)(C)CCC1
inactive: dose: 50.0 mg/kg/injection, schedule: Q01DX009 (ip), vehicle: steriod suspending solution 90 % of control | dose: 100.0 mg/kg/injection, schedule: Q01DX001 (ip), vehicle: other 100 % of control | dose: 100.0 mg/kg/injection, schedule: Q01DX009 (ip), vehicle: steriod suspending solution 95 % of control | dose: 150.0 mg/kg/injection, schedule: Q01DX001 (ip), vehicle: other 98 % of control | dose: 200.0 mg/kg/injection, schedule: Q01DX001 (ip), vehicle: other 95 % of control and 102 % of control | dose: 200.0 mg/kg/injection, schedule: Q01DX001 (sc), vehicle: steriod suspending solution 101 % of control | dose: 400.0 mg/kg/injection, schedule: Q01DX001 (sc), vehicle: steriod suspending solution 98 % of control

COC1OC(COC(C)=O)C(OC(C)=O)C(OC(C)=O)[CH]1[Hg][O]C(C)=O (configuration not stated)
inactive: dose: 6.25 mg/kg/injection, schedule: Q04DX003 (ip), vehicle: saline 96 % of control | dose: 12.5 mg/kg/injection, schedule: Q04DX003 (ip), vehicle: saline 98 % of control | dose: 25.0 mg/kg/injection, schedule: Q04DX003 (ip), vehicle: saline 92 % of control
